Reference: ChEMBL document CHEMBL4385670, “Potent HIV-1 protease inhibitors incorporating squaramide-derived P2 ligands: Design, synthesis, and biological evaluation” (Bioorg Med Chem Lett, 2019)

Experiments:
[1] = system: Human immunodeficiency virus 1; experiment: Antiviral activity against HIV1 NL4-3 infected in human MT4 cells assessed as reduction in p24 Gag protein production incubated for 6 days and measured on day 7 by chemiluminescent enzyme immunoassay; format: functional, organism-based; settings: Human immunodeficiency virus 1, NL4-3, MT4
Protease = Protease (Human immunodeficiency virus 1, UniProt Q9YQ12); experiment: Inhibition of HIV1 protease using Ac-Thr-Ile-Nle-Nle-Gln-Arg-NH2 substrate by continuous fluorometric assay
Chain of Protease (Q9YQ12 whole entry): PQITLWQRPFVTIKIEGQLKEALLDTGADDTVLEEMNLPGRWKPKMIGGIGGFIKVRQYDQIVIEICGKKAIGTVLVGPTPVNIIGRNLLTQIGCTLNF

Row | SMILES | IC50 [1] | Ki (Protease)
1 | COCCOc1c(N[C@@H](Cc2ccccc2)[C@H](O)CN(CC(C)C)S(=O)(=O)c2ccc(OC)cc2)c(=O)c1=O | > 1000 nM | 1960 nM
2 | CCOc1c(N[C@@H](Cc2ccccc2)[C@H](O)CN(CC(C)C)S(=O)(=O)c2ccc(OC)cc2)c(=O)c1=O | > 1000 nM | 463 nM
3 | COc1ccc(S(=O)(=O)N(CC(C)C)C[C@@H](O)[C@H](Cc2ccccc2)Nc2c(O[C@@H]3CCOC3)c(=O)c2=O)cc1 | > 1000 nM | 226 nM
4 | COc1ccc(S(=O)(=O)N(CC(C)C)C[C@@H](O)[C@H](Cc2ccccc2)Nc2c(N(C)[C@@H]3CCOC3)c(=O)c2=O)cc1 | > 1000 nM | 0.51 nM
5 | COc1ccc(S(=O)(=O)N(CC(C)C)C[C@@H](O)[C@H](Cc2ccccc2)Nc2c(N(C)[C@H]3CCOC3)c(=O)c2=O)cc1 | > 1000 nM | 397 nM
6 | COc1ccc(S(=O)(=O)N(CC(C)C)C[C@@H](O)[C@H](Cc2ccccc2)Nc2c(N(C)[C@@H]3CO[C@@H]4OCC[C@@H]43)c(=O)c2=O)cc1 | > 1000 nM | 201 nM
7 | COc1ccc(S(=O)(=O)N(CC(C)C)C[C@@H](O)[C@H](Cc2ccccc2)Nc2c(N(C)[C@H]3CO[C@H]4OCC[C@H]43)c(=O)c2=O)cc1 | > 1000 nM | 4.5 nM
8 | COc1ccc(S(=O)(=O)N(CC(C)C)C[C@@H](O)[C@H](Cc2ccccc2)Nc2c(N[C@H]3CCOC3)c(=O)c2=O)cc1 | > 1000 nM | 6100 nM
9 | COc1ccc(S(=O)(=O)N(CC(C)C)C[C@@H](O)[C@H](Cc2ccccc2)Nc2c(N[C@H]3CO[C@H]4OCC[C@H]43)c(=O)c2=O)cc1 | > 1000 nM | 54.8 nM
10 | COc1ccc(S(=O)(=O)N(CC(C)C)C[C@@H](O)[C@H](Cc2ccccc2)Nc2c(N[C@@H]3CCOC3)c(=O)c2=O)cc1 | > 1000 nM | 200 nM
11 | COc1ccc(S(=O)(=O)N(CC(C)C)C[C@@H](O)[C@H](Cc2ccccc2)Nc2c(O[C@H]3CCOC3)c(=O)c2=O)cc1 | > 1000 nM | 31.1 nM
12 | COc1ccc(S(=O)(=O)N(CC(C)C)C[C@@H](O)[C@H](Cc2ccccc2)Nc2c(N[C@@H]3CO[C@@H]4OCC[C@@H]43)c(=O)c2=O)cc1 | > 1000 nM | 5.6 nM
